Experimental data as given in patent US20250163047A1, “HETEROCYCLIC COMPOUNDS, COMPOSITIONS THEREOF, AND METHODS OF TREATMENT THEREWITH” (BeiGene, Ltd., priority 2022, published 2025).

What was measured:
[1] = biological target: T1, Cbl-b (aa36-427) (Homo sapiens, UniProt Q13191); assay: Co-expressed Cbl-b with BirA biochemical assay (CBLB/E2-Ub binding, HTRF); conditions: 0.6 nM Cbl-b co-expressed with BirA, HTRF; read-out: co-express CBLB/E2-Ub-binding assay IC50
T1 construct: Cbl-b (aa36-427, in-house); made in house
Text: (§1) The assay in the absence of a Cbl-b/Cbl inhibitor, where phosphorylation of Cbl-b/Cbl by the Src kinase allows UbcH5B-Ub to bind to Cbl-b/Cbl and brings the Bodipy-Fluorescein tagged ubiquitin in proximity to the streptavidin-terbium bound to the N-terminal biotinylated Avi-tagged Cbl-b/Cbl. […] The lack of a FRET signal indicates Cbl-b/Cbl is inhibited by the Cbl-b/Cbl inhibitor.

[2] = biological target: T2, Cbl (aa49-434) (Homo sapiens, UniProt P22681); assay: Co-expressed Cbl with BirA biochemical assay (CBL/E2-Ub binding, HTRF); conditions: 0.6 nM Cbl co-expressed with BirA, read-out: co-express CBL/E2-Ub-binding assay IC50
T2 construct: Cbl (aa49-434, in-house); made in house
T2 sequence (P22681 49-434): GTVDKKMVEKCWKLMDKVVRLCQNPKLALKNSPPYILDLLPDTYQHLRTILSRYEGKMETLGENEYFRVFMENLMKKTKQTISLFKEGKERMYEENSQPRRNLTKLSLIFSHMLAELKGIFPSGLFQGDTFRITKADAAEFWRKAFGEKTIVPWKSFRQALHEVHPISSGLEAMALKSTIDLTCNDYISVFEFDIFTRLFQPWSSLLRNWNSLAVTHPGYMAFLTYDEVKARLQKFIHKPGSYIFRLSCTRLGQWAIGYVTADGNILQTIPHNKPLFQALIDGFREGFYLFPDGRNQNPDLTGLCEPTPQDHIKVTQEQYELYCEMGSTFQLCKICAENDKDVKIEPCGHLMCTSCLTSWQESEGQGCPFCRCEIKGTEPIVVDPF
Text: as §1

T1 sequence (Q13191 36-427): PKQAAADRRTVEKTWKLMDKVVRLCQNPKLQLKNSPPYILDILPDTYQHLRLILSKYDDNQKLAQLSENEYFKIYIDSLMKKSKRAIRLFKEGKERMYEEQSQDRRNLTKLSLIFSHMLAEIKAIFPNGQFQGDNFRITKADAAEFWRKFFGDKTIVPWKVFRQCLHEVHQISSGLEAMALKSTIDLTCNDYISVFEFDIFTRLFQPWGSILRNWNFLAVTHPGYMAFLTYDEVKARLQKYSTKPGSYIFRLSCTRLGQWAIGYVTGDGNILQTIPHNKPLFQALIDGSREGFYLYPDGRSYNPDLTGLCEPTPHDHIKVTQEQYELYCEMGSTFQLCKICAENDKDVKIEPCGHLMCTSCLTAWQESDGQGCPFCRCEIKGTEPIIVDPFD

`C[C@H]1CCCN(Cc2cc(C(=O)Nc3cccc([C@]4(c5nncn5C)C[C@@H](CC#N)C4)c3)n3nccc3c2)C1` [Compound A11, 5-{[(3S)-3-methylpiperidin-1-yl]methyl}-N-{3-[(1s, 3s)-3-(cyanomethyl)-1-(4-methyl-1,2,4-triazol-3-yl)cyclobutyl]phenyl}pyrazolo[1,5-a]pyridine-7-carboxamide] gave an IC50 [1] of 6.6 nM and an IC50 [2] of 46.2 nM.

`Cn1cnnc1[C@]1(c2cccc(NC(=O)c3cc(CNC4(C)CCC4)c4[nH]ccc4n3)c2)C[C@H](CC#N)C1` [Compound B27, N-(3-((1s, 3s)-3-(cyanomethyl)-1-(4-methyl-4H-1,2,4-triazol-3-yl)cyclobutyl)phenyl)-7-(((1-methylcyclobutyl)amino)methyl)-1H-pyrrolo[3,2-b]pyridine-5-carboxamide] gave an IC50 [1] of 1.2 nM and an IC50 [2] of 8.4 nM.

With `C[C@@H]1CN(Cc2cc(C(=O)Nc3cccc([C@]4(c5nncn5C)C[C@@H](CC#N)C4)c3)nc3c2NCC3(C)C)CC[C@@H]1F` [Compound C47, 7-{[(3R,4S)-4-fluoro-3-methylpiperidin-1-yl]methyl}-3,3-dimethyl-N-{3-[(1s, 3s)-3-(cyanomethyl)-1-(4-methyl-1,2,4-triazol-3-yl)cyclobutyl]phenyl}-1H,2H-pyrrolo[3,2-b]pyridine-5-carboxamide] the IC50 [1] was 0.7 nM and the IC50 [2] was 1.2 nM.

`C[C@H](NCc1cc(C(=O)Nc2cccc([C@]3(c4nncn4C)C[C@@H](CC#N)C3)c2)nc2c1CCC2(C)C)C1CCC1` [Compound C38, N-(3-((1s,3R)-3-(cyanomethyl)-1-(4-methyl-4H-1,2,4-triazol-3-yl)cyclobutyl)phenyl)-4-((((S)-1-cyclobutylethyl)amino)methyl)-7,7-dimethyl-6,7-dihydro-5H-cyclopenta[b]pyridine-2-carboxamide] was tested, and the IC50 [1] was 1.1 nM and the IC50 [2] was 1.5 nM.

`C[C@H]1CCCN(Cc2cc(C(=O)Nc3cccc(C4(Cc5nncn5C)COC4)c3)c3nc(F)cn3c2)C1` [Compound A7, (S)-2-fluoro-N-(3-(3-((4-methyl-4H-1,2,4-triazol-3-yl)methyl)oxetan-3-yl)phenyl)-6-((3-methylpiperidin-1-yl)methyl)imidazo[1,2-a]pyridine-8-carboxamide] gave an IC50 [1] of 4.4 nM and an IC50 [2] of 14.4 nM.

Compound `C[C@H](NCc1cc(C(=O)Nc2cccc([C@]3(c4nncn4C)C[C@@H](C)C3)c2)nc2c(F)c[nH]c12)C1CCC1` [Compound B38, 7-((((S)-1-cyclobutylethyl)amino)methyl)-3-fluoro-N-(3-((1s,3R)-3-methyl-1-(4-methyl-4H-1,2,4-triazol-3-yl)cyclobutyl)phenyl)-1H-pyrrolo[3,2-b]pyridine-5-carboxamide] has an IC50 [1] of 0.5 nM and an IC50 [2] of 1.3 nM.

Compound `C[C@H](NCc1cc(C(=O)Nc2cccc([C@]3(c4nncn4C)C[C@@H](C)C3)c2)nc2c1OCC2(C)C)C1CC1` [Compound C35, 7-((((S)-1-cyclopropylethyl)amino)methyl)-3,3-dimethyl-N-(3-((1s,3R)-3-methyl-1-(4-methyl-4H-1,2,4-triazol-3-yl)cyclobutyl)phenyl)-2,3-dihydrofuro[3,2-b]pyridine-5-carboxamide] has an IC50 [1] of 3.8 nM and an IC50 [2] of 24.4 nM.

`Cn1cnnc1[C@]1(c2cncc(NC(=O)c3cc(CNC4(C)CC4)cc4c(F)cnn34)c2)C[C@H](C)C1` [Compound A93, 3-fluoro-N-(5-((1s, 3s)-3-methyl-1-(4-methyl-4H-1,2,4-triazol-3-yl)cyclobutyl)pyridin-3-yl)-5-(((1-methylcyclopropyl)amino)methyl)pyrazolo[1,5-a]pyridine-7-carboxamide] gave an IC50 [1] of 1.6 nM and an IC50 [2] of 5.2 nM.

With `Cn1cnnc1[C@]1(c2cccc(NC(=O)c3cc(CNC4(C)CCC4)c4c(n3)C(C)(C)CO4)c2)C[C@H](CC#N)C1` [Compound C23, N-(3-((1s, 3s)-3-(cyanomethyl)-1-(4-methyl-4H-1,2,4-triazol-3-yl)cyclobutyl)phenyl)-3,3-dimethyl-7-(((1-methylcyclobutyl)amino)methyl)-2,3-dihydrofuro[3,2-b]pyridine-5-carboxamide] the IC50 [1] was 6.3 nM and the IC50 [2] was 100 nM.

`Cn1cnnc1[C@]1(c2cccc(NC(=O)c3cc(CN[C@H]4C[C@@H](C)C4)c4[nH]ccc4n3)c2)C[C@H](C)C1` [Compound B33, N-(3-((1s, 3s)-3-methyl-1-(4-methyl-4H-1,2,4-triazol-3-yl)cyclobutyl)phenyl)-7-((((1s, 3s)-3-methylcyclobutyl)amino)methyl)-1H-pyrrolo[3,2-b]pyridine-5-carboxamide] showed an IC50 [1] of 0.9 nM and an IC50 [2] of 4.7 nM.

`CC(C)CNCc1cc(C(=O)Nc2cncc([C@]3(c4nncn4C)C[C@@H](C)C3)c2)c2ncc(F)n2c1` [Compound A79, 3-fluoro-6-((isobutylamino)methyl)-N-(5-((1s, 3s)-3-methyl-1-(4-methyl-4H-1,2,4-triazol-3-yl)cyclobutyl)pyridin-3-yl)imidazo[1,2-a]pyridine-8-carboxamide] was tested, and the IC50 [1] was 0.73 nM and the IC50 [2] was 1.4 nM.

For `Cn1cnnc1C[C@]1(c2cccc(NC(=O)c3cc(CNC4(C)CC4)c4c(n3)C(C)(C)CN4)c2)C[C@H](C#N)C1` [Compound C44, 3,3-dimethyl-7-{[(1-methylcyclopropyl)amino]methyl}-N-{3-[(1r, 3r)-3-cyano-1-[(4-methyl-1,2,4-triazol-3-yl)methyl]cyclobutyl]phenyl}-1H,2H-pyrrolo[3,2-b]pyridine-5-carboxamide], the IC50 [1] was 1.5 nM and the IC50 [2] was 3.3 nM.

For `Cc1c[nH]c2c(CN3CC[C@H](F)[C@H](C)C3)cc(C(=O)Nc3cccc([C@]4(c5nncn5C)C[C@@H](C)C4)c3)nc12` [Compound B34, 7-(((3R,4S)-4-fluoro-3-methylpiperidin-1-yl)methyl)-3-methyl-N-(3-((1s,3S)-3-methyl-1-(4-methyl-4H-1,2,4-triazol-3-yl)cyclobutyl)phenyl)-1H-pyrrolo[3,2-b]pyridine-5-carboxamide], the IC50 [1] was 1.6 nM and the IC50 [2] was 5.5 nM.

With `Cc1cnc2c(C(=O)Nc3cncc([C@]4(c5nncn5C)C[C@@H](C)C4)c3)cc(CN[C@@H](C)C3CC3)cn12` [Compound A64, 6-((((S)-1-cyclopropylethyl)amino)methyl)-3-methyl-N-(5-((1s,3R)-3-methyl-1-(4-methyl-4H-1,2,4-triazol-3-yl)cyclobutyl)pyridin-3-yl)imidazo[1,2-a]pyridine-8-carboxamide] the IC50 [1] was 2.2 nM and the IC50 [2] was 26 nM.

`C[C@H](NCc1cc(C(=O)Nc2cccc([C@]3(c4nncn4C)C[C@@H](CC#N)C3)c2)nc2c1NCC21CC1)C1CC1` [Compound C36, N-(3-((1s,3R)-3-(cyanomethyl)-1-(4-methyl-4H-1,2,4-triazol-3-yl)cyclobutyl)phenyl)-7′-((((S)-1-cyclopropylethyl)amino)methyl)-1′,2′-dihydrospiro[cyclopropane-1,3′-pyrrolo[3,2-b]pyridine]-5′-carboxamide] showed an IC50 [1] of 1.8 nM and an IC50 [2] of 2.8 nM.

In the case of `C[C@H]1CCCN(Cc2cc(C(=O)Nc3cccc(C4(Cc5nncn5C)COC4)c3)nc3cc[nH]c23)C1` [Compound B6, (S)—N-(3-(3-((4-methyl-4H-1,2,4-triazol-3-yl)methyl)oxetan-3-yl)phenyl)-7-((3-methylpiperidin-1-yl)methyl)-1H-pyrrolo[3,2-b]pyridine-5-carboxamide], the IC50 [1] is reported as 4 nM and the IC50 [2] is reported as 6.9 nM.

Compound `C[C@@H]1CN(Cc2cc(C(=O)Nc3cccc([C@]4(Cc5nncn5C)C[C@@H](C#N)C4)c3)c3nccn3c2)CC[C@@H]1F` [Compound A48, N-(3-((1r,3R)-3-cyano-1-((4-methyl-4H-1,2,4-triazol-3-yl)methyl)cyclobutyl)phenyl)-6-(((3R,4S)-4-fluoro-3-methylpiperidin-1-yl)methyl)imidazo[1,2-a]pyridine-8-carboxamide] has an IC50 [1] of 0.8 nM and an IC50 [2] of 2.7 nM.

Work on `Cn1ccc2nc(C(=O)Nc3cccc([C@]4(c5nncn5C)C[C@@H](CC#N)C4)c3)cc(CNC3(C)CC3)c21` [Compound B57, N-(3-((1s, 3s)-3-(cyanomethyl)-1-(4-methyl-4H-1,2,4-triazol-3-yl)cyclobutyl)phenyl)-1-methyl-7-(((1-methylcyclopropyl)amino)methyl)-1H-pyrrolo[3,2-b]pyridine-5-carboxamide] yielded an IC50 [1] of 1.3 nM and an IC50 [2] of 15 nM.

Compound `Cn1cnnc1[C@]1(c2cccc(NC(=O)c3cc(CNCC4CCC4)c4c(n3)C(F)(F)CC4)c2)C[C@H](C)C1` [Compound C56, 4-(((cyclobutylmethyl)amino)methyl)-7,7-difluoro-N-(3-((1s, 3s)-3-methyl-1-(4-methyl-4H-1,2,4-triazol-3-yl)cyclobutyl)phenyl)-6,7-dihydro-5H-cyclopenta[b]pyridine-2-carboxamide] has an IC50 [1] of 0.5 nM and an IC50 [2] of 2.6 nM.

For `Cn1cnnc1[C@]1(c2cncc(NC(=O)c3cc(CNCC4CCC4)c4c(n3)C(C)(C)CC4)c2)C[C@H](C)C1` [Compound C29, 4-(((cyclobutylmethyl)amino)methyl)-7,7-dimethyl-N-(5-((1s, 3s)-3-methyl-1-(4-methyl-4H-1,2,4-triazol-3-yl)cyclobutyl)pyridin-3-yl)-6,7-dihydro-5H-cyclopenta[b]pyridine-2-carboxamide], the IC50 [1] was 4.2 nM and the IC50 [2] was 9.6 nM.
